From PMC3408963 (Bioorganic & medicinal chemistry, 2012) come the findings set out here.

In one assay the target is COX-1 (Homo sapiens, UniProt P23219). In kind it is biochemical. The conditions noted are these: for COX-1 inhibition, result in words: initial screen at 25 μM / relevant concentration range; for pIC50: read-out: IC50 COX-1, radioactivity assay, pre-incubation 17 min at 25 °C and 3 min at 37 °C, 50 μM [14C]-AA for 30 sec, average of at least two independent experiments.
In a further assay the target is T1, COX-2 (Homo sapiens, UniProt P35354).
T1 sequence (P35354 18-604): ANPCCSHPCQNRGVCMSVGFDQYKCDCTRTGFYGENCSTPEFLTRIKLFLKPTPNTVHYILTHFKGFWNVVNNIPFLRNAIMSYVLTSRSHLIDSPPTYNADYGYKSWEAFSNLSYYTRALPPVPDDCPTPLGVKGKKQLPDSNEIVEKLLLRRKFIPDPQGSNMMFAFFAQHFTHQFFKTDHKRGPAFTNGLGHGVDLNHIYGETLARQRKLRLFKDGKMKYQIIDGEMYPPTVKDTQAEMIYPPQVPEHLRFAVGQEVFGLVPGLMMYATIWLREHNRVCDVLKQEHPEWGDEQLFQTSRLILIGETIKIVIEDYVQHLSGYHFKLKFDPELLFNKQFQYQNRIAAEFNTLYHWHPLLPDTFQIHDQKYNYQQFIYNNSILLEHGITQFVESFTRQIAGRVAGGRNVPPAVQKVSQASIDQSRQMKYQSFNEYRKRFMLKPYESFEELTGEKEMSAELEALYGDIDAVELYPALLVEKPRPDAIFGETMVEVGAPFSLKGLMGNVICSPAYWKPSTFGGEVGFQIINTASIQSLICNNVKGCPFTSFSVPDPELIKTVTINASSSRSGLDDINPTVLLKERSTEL
In kind it is biochemical. The conditions noted are these: for COX-2 inhibition, result in words: initial screen at 25 μM / relevant concentration range; for pIC50: read-out: IC50 COX-2, radioactivity assay, pre-incubation 17 min at 25 °C and 3 min at 37 °C, 50 μM [14C]-AA for 30 sec, average of at least two independent experiments.

pIC50: −log10 of the molar value.

Sequence of COX-1 (P23219 24-599): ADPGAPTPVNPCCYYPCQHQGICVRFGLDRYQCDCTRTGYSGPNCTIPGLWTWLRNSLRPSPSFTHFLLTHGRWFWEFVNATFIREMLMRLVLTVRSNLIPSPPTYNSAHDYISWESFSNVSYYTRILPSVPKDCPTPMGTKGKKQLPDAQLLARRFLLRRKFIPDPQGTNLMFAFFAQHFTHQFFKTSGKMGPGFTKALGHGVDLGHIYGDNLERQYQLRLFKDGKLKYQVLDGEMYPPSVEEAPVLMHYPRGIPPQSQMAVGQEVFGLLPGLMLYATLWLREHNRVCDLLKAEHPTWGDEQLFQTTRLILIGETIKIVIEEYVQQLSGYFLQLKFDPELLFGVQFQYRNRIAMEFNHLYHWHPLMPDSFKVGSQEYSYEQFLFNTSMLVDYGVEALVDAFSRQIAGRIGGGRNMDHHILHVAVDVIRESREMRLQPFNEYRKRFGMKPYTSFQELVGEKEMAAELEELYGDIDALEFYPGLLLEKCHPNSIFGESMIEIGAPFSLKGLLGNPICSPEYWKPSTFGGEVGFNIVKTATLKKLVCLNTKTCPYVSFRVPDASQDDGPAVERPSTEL

The term pIC50 denotes −log10 of the IC50, conventionally taken in molar units. On to “1-(1-Carboxy-1,2-dicarba-closo-dodecaboran(12)yl)-5-methoxy-2-methyl-1H-indole-3-acetic acid [Compound 4o]”, for which, on COX-1, the “COX-1 inhibition, result in words” value is given as “not COX-1” and the pIC50 was less than 4.60. Also, on COX-2, the “COX-2 inhibition, result in words” value is “exclusively inhibited COX-2” and the pIC50 is 5.43.
“1-(1-Carboxy-1,2-dicarba-closo-dodecaboran(12)yl)-5-methoxy-2-methyl-1H-indole-3-acetic acid benzyl ester [Compound 2o]”: the “COX-1 inhibition, result in words” value at COX-1 was “also inhibited COX-1”. Also, the pIC50 on COX-1 was 4.82; on COX-2, 4.94.
The like results for “1-(1-Carboxy-1,2-dicarba-closo-dodecaboran(12)yl)-5-methoxy-2-methyl-1H-indole-3-acetic acid methyl ester [Compound 1o]” were, in that order, “also inhibited COX-1”, 4.89 and 7.08.
As to “1-(1-Carboxy-1,2-dicarba-closo-dodecaboran(12)yl)-5-methoxy-2-methyl-1H-indole-3-acetic acid tert-butyl ester [Compound 3o]”, on COX-1, the “COX-1 inhibition, result in words” value was “not COX-1” and the pIC50 is less than 4.60. In addition, on COX-2, the “COX-2 inhibition, result in words” value is “exclusively inhibited COX-2” and the pIC50 was 5.85.
As to `COC(=O)Cc1c(C)n(C(=O)c2ccc(Cl)cc2)c2ccc(OC)cc12` [Compound 1i, Indomethacin methyl ester, reference compound], at COX-1, the pIC50 is less than 4.60.
